Assay results taken from patent US5103018A, “Mitomycin derivatives” (Kyowa Hakko Kogyo Kabushiki Kaisha, priority 1986, dated 1992).
In brackets after ≈: the same amount, converted by molar mass. Like-named read-outs stand apart in the source and are kept apart here.

What was measured:
in vivo = type: in vivo, mice (ddy strain); settings: mouse, in vivo, ip; read-out: (WBC4000/ED50)* = (WBC4000/ED50)/[(WBC4000/ED50) of MMC1]
Method: (§1) Certain compounds were selected from Compounds I. The following Table 4 indicates anti-tumour activity against Sarcoma 180 solid tumour (ED50), acute toxicity (LD50) and effects on the peripheral leucocytes (WBC4000) of each compound.
(4) Effect upon the number of the peripheral leucocytes:
Sarcoma 180 solid tumour cells (5×10^6) were subcutaneously implanted into the right armpit of each mouse (body weight 20±2 g) of a group consisting of 5 male mice (ddy strain). 24 hours after implantation,a test compound was abdominally administered to each mouse. 4 days later, blood (each 0.02 ml) was collected from the suborbital plexus vein of each tumour-carrying mouse. The collected sample of blood was dispersed in 9.98 ml of Cell-kit Seven solution. One drop of saponin solution was added to the sample to dissolve erythrocytes and then a microcell counter was used to measure the number of leucocytes. On graph paper, the number of leucocytes was indicated on the y-axis by an arithmetic scale and the does of the test compound was indicated on the x-axis by a logarithmic scale.
The relationship between the number of peripheral leucocytes and the dosage of the test compound was plotted to obtain WBC4000 viz. the dosage corresponding to […] per mm^3 (about half of the number of leucocytes of normal mice).

Acute toxicity = type: in vivo, mice (ddy); settings: mouse, in vivo, ip; for LD50 at 336 h: ddy mice, single i.p., 14 days, Behren Korber's method; for selectivity ratio: read-out: (C.I.)* = (LD50/ED50)/[(LD50/ED50) of MMC1]
Method: as §1
Each animal of the test group consisting of 5 ddy mice was once administered (i.p.) with a test compound. […] The LD50 was determined by Behren Korber's method.

[1] = system: Streptococcus faecalis ATCC 10541; assay: Minimum inhibitory concentration, agar dilution method, SF; type: cell-based; settings: Enterococcus faecalis
Text: (§2) Certain Compounds I were selected. Table 3 indicates their anti-bacterial activities in terms of their minimum inhibitory concentration (μg/ml), determined by the agar dilution method effected at a pH of 7.0. In this table, the microorganisms used are abbreviated as follows:
SF: Streptococcus faecalis ATCC 10541

Sarcoma 180 solid tumour = assay: animal or person; type: in vivo, mice (ddy strain); settings: Mus musculus, Sarcoma-180, ip, 168 h, read-out: ED50 ip
Text: as §1
(1) Effect against Sarcoma 180 solid tumour:
5×10^6 cells of Sarcoma 180 solid tumour cells were abdominally implanted into male mice of ddy strain. 7 days after this, ascites cells were sampled. The cells were washed once with a sterilized physiological solution of sodium chloride and were used to prepare a cell suspension containing 5×10^7 cells per ml. On each occasion, 0.1 ml of the cell suspension was subcutaneously implanted into the right armpit of a male mouse (ddy strain; body weight 20±2 g). 24 hours after the implantation of the tumour cells, the test compound which was dissolved in a physiological solution of sodium chloride with or without addition of Tween 80 was abdominally administered to each mouse of a group consisting of 5 animals at a does of 0.1-0.2 ml. The anti-tumour activity was determined as follows:
7 days after the implantation, the major axis (a) and the minor axis (b) of the tumour were measured to calculate a value of "a×b^2 /2" which corresponds to the volume of the tumour. The anti-tumour activity was expressed by T/C viz. the ratio of the volume of the tumours (T) of the group of animals administered with the test compound to the corresponding volume of tumours (C) of the untreated animals.
(2) Determination of ED50 :
The term ED50 denotes the administered amount needed for reducing the volume of Sarcoma 180 solid tumours in the animals to 50% on the basis of the corresponding volume of Sarcoma 180 solid tumours in control (untreated) animals.
On graph paper, T/C was indicated by an arithmetic scale on the longitudinal axis and the administered amount of test compound was indicated by a logarithmic scale on the lateral axis.

[2] = system: Staphylococcus aureus ATCC 6583P; assay: Minimum inhibitory concentration, agar dilution method, SA; type: cell-based; settings: ATCC6583P
Text: as §2
SA: Staphylococcus aureus ATCC 6583P

[3] = system: Proteus vulgaris ATCC 6897; assay: Minimum inhibitory concentration, agar dilution method, PV; type: cell-based
Text: as §2
PV: Proteus vulgaris ATCC 6897

P388 Leukemia = assay: Effect upon Leukemia P 388; type: in vivo, mouse (CDF1); settings: single i.p., 33 days
Method: (5) Effect upon Leukemia P 388:
Ascites cells were collected from P388 Leukemia-carrying mouse (DBA/2) 7 days after the implantation. The number of the cells of P388 Leukemia in the sample was counted. A physiological solution of sodium chloride was sterilized and used to prepare a cell suspension containing 5×10^6 tumour cells per ml. On each occasion, 0.2 ml of the suspension containing 1×10^6 cells was implanted into the abdominal cavity of each mouse (CDF1; body weight 20~25 g). 24 hours after implantation, the test compound was once given to each mouse of a test group consisting of 6 mice by abdominal injection.
The activity of the test samples was determined by the ratio of the average survival days of the treated animals to the average survival days of untreated animals viz. ILS % (Increased Life Span).

[4] = system: Klebsiella pneumoniae ATCC 10031; assay: microbe, parasite or virus in culture; type: cell-based; settings: ATCC10031, pH 7, read-out: minimum inhibitory concentration, KP
Text: Certain Compounds I were selected. […] In this table, the microorganisms used are abbreviated as follows:
KP: Klebsiella pneumoniae ATCC 10031

Solubility in water = type: physicochemical; settings: water
Escherichia coli ATCC 26 = assay: Minimum inhibitory concentration, agar dilution method, EC; type: cell-based
Text: as §2
EC: Escherichia coli ATCC 26

[5] = ATCC10541, pH 7, read-out: minimum inhibitory concentration, SF
[6] = Staphylococcus aureus, pH 7, read-out: minimum inhibitory concentration, SA
[7] = Proteus vulgaris, ATCC6897, pH 7, read-out: minimum inhibitory concentration, PV
[8] = Escherichia coli, ATCC26, pH 7, read-out: minimum inhibitory concentration, EC

Compound	selectivity ratio (in vivo)	LD50 at 336 h (Acute toxicity) [mg/kg]	selectivity ratio (Acute toxicity)	MIC [1, 5] [µg/mL]	ED50 (Sarcoma 180 solid tumour) [mg/kg]	MIC [2, 6] [µg/mL]	MIC [3, 7] [µg/mL]	ILS* (ratio of ILS % to that of mitomycin C) (P388 Leukemia; dose 50 mg/kg)	MIC [4] [µg/mL]	solubility (Solubility in water) [mg/mL]	MIC (Escherichia coli ATCC 26; [8]) [µg/mL]	ILS* (ratio of ILS % to that of mitomycin C) (P388 Leukemia; dose 20.3 mg/kg)	ILS* (ratio of ILS % to that of mitomycin C) (P388 Leukemia; dose 25 mg/kg)	ILS* (ratio of ILS % to that of mitomycin C) (P388 Leukemia; dose 3.13 mg/kg)	MIC (Escherichia coli ATCC 26; ATCC26, agar dilution method, pH 7.0, Escherichia coli, read-out: minimum inhibitory concentration, EC) [µg/mL]	MIC ([1]; ATCC10541, agar dilution method, pH 7.0, Streptococcus faecalis, read-out: minimum inhibitory concentration, SF) [µg/mL]	MIC ([2]; agar dilution method, pH 7.0, Staphylococcus aureus, read-out: minimum inhibitory concentration, SA) [µg/mL]	MIC ([3]; ATCC6897, agar dilution method, pH 7.0, Proteus vulgaris, read-out: minimum inhibitory concentration, PV) [µg/mL]
CC1=C(NCCSSCCNC(=O)CC[C@H](N)C(=O)O)C(=O)C2=C(C1=O)N1C[C@H]3[C@H](N3C)[C@]1(O)[C@H]2COC(N)=O (stereo partly drawn) [Compound 2, 7-N-[2-[[2-(N^5 -L-glutamino)ethyl]dithio]ethyl]mitomycin D]	2.14	90	1.55	100 (≈ 167 µM)	18	50 (≈ 83.5 µM)	25 (≈ 41.8 µM)	> 1.34	> 100	> 5	–	–	–	–	–	–	–	–
CO[C@@]12[C@H](COC(N)=O)C3=C(C(=O)C(C)=C(NCCSSCCNC(=O)CC[C@@H](N)C(=O)O)C3=O)N1C[C@@H]1N[C@@H]12 [Compound 3, 7-N-[2-[[2-(N^5 -D-glutamino)ethyl]dithio]ethyl]mitomycin C]	3.02	22.5	1.46	3.1 (≈ 5.18 µM)	5.7	1.6 (≈ 2.67 µM)	0.8 (≈ 1.34 µM)	–	0.8 (≈ 1.34 µM)	> 20	50 (≈ 83.5 µM)	–	–	–	–	–	–	–
CO[C@@]12[C@H](COC(N)=O)C3=C(C(=O)C(C)=C(NCCSSCCCNC(=O)CC[C@H](N)C(=O)O)C3=O)N1C[C@@H]1N[C@@H]12 [Compound 4, 7-N-[2-[[3-(N^5 -L-glutamino)propyl]dithio]ethyl]mitomycin C]	1.27	22.5	1.52	3.1 (≈ 5.06 µM)	5.1	1.6 (≈ 2.61 µM)	3.1 (≈ 5.06 µM)	–	0.8 (≈ 1.31 µM)	> 20	250 (≈ 408 µM)	–	–	–	–	–	–	–
CO[C@@]12[C@H](COC(N)=O)C3=C(C(=O)C(C)=C(NCCSSCCCCNC(=O)CC[C@H](N)C(=O)O)C3=O)N1C[C@@H]1N[C@@H]12 [Compound 5, 7-N-[2-[[4-(N^5 -L-glutamino)butyl]dithio]ethyl]mitomycin C]	3.21	30	1.66	1.6 (≈ 2.55 µM)	8.4	1.6 (≈ 2.55 µM)	1.6 (≈ 2.55 µM)	–	0.8 (≈ 1.28 µM)	> 20	–	–	–	–	–	–	–	–
CO[C@@]12[C@H](COC(N)=O)C3=C(C(=O)C(C)=C(NCCSSCCNC(=O)[C@@H](N)CCC(=O)O)C3=O)N1C[C@@H]1N[C@@H]12 [Compound 9, 7-N-[2-[[2-(N^2 -L-glutamino)ethyl]dithio]ethyl]mitomycin C]	–	–	–	–	7.7	–	–	–	–	> 20	–	–	–	–	–	–	–	–
CO[C@@]12[C@H](COC(N)=O)C3=C(C(=O)C(C)=C(NCCSSCCNC(=O)c4cc(=O)[nH]c(=O)[nH]4)C3=O)N1C[C@@H]1N[C@@H]12 [Compound 14, 7-N-[2-[(2-orotamidoethyl)dithio]ethyl]mitomycin C]	1.2	45	1.68	–	11.5	–	–	–	–	–	–	> 2.60	–	–	–	–	–	–
CO[C@@]12[C@H](COC(N)=O)C3=C(C(=O)C(C)=C(NCCSSCCNC(=O)/C=C(C)/C=C/C=C(C)/C=C/C4=C(C)CCCC4(C)C)C3=O)N1C[C@@H]1N[C@@H]12 [Compound 15]	3	16.9	0.82	0.63 (≈ 0.838 µM)	7.4	0.078 (≈ 0.104 µM)	1.3 (≈ 1.73 µM)	–	2.5 (≈ 3.32 µM)	–	–	–	–	–	–	–	–	–
CC(=O)NCCSSCCNC1=C(C)C(=O)C2=C(C1=O)[C@H](COC(N)=O)[C@@]1(O)[C@@H]3[C@H](CN21)N3C (stereo partly drawn) [Compound 17, 7-N-[2-[(2-acetamidoethyl)dithio]ethyl]mitomycin D]	2.6	60	2.73	25 (≈ 48.9 µM)	7.3	> 50	> 50	–	–	–	–	–	> 1.78	–	–	–	–	–
CO[C@@]12[C@H](COC(N)=O)C3=C(C(=O)C(C)=C(NCCSSCCC(N)=O)C3=O)N1C[C@@H]1N[C@@H]12 [Compound 21, 7-N-[2-[(2-carbamoylethyl)dithio]ethyl]mitomycin C]	1.01	18.8	0.68	1.3 (≈ 2.61 µM)	11.8	0.63 (≈ 1.27 µM)	5 (≈ 10 µM)	–	1.3 (≈ 2.61 µM)	–	–	–	–	–	–	–	–	–
CO[C@@]12[C@H](COC(N)=O)C3=C(C(=O)C(C)=C(NCCSSCCC(=O)NC[C@H](O)c4ccc(O)c(O)c4)C3=O)N1C[C@@H]1N[C@@H]12 [Compound 32]	2.39	30	1.56	–	7.1	–	–	–	–	–	–	–	–	> 1.44	–	–	–	–
CO[C@@]12[C@H](COC(N)=O)C3=C(C(=O)C(C)=C(NCCSSCCSC(C)=O)C3=O)N1C[C@@H]1N[C@@H]12 [Compound 33, 7-N-[2-[[2-(acetylthio)ethyl]dithio]ethyl]mitomycin C]	1.27	4.7	0.36	0.039 (≈ 0.0738 µM)	5.6	0.078 (≈ 0.148 µM)	0.63 (≈ 1.19 µM)	–	0.63 (≈ 1.19 µM)	–	> 40	–	–	–	–	–	–	–
CO[C@@]12[C@H](COC(N)=O)C3=C(C(=O)C(C)=C(NCCSSCc4cn([C@H]5C[C@H](O)[C@@H](CO)O5)c(=O)[nH]c4=O)C3=O)N1C[C@@H]1N[C@@H]12 [Compound 39, 7-N-[2-[[(2'-deoxyuridin-5-yl)methyl]dithio]ethyl]mitomycin C]	1.5	75	1.37	–	34.7	–	–	1.83	–	–	–	–	–	–	–	–	–	–
CO[C@@]12[C@H](COC(N)=O)C3=C(C(=O)C(C)=C(N)C3=O)N1C[C@@H]1N[C@@H]12 [MM-C, mitomycin C, reference compound]	–	–	–	–	–	–	–	–	–	–	–	–	–	–	10 (≈ 29.9 µM)	0.08 (≈ 0.239 µM)	0.04 (≈ 0.12 µM)	0.02 (≈ 0.0598 µM)
